Measurements: ChEMBL document CHEMBL3045439, “Isoforms of the heteropteran Nezara viridula ecdysone receptor: protein characterisation, RH5992 insecticide binding and homology modelling” (Pest Manag Sci, 2011)

Tests used:
[1] = molecular target: T1, Ecdysone receptor (Chironomus tentans, UniProt O45117+P49882); test: Binding affinity to Chironomus tentans EcR; type: protein-complex assay
T1 sequence (P49882 whole entry): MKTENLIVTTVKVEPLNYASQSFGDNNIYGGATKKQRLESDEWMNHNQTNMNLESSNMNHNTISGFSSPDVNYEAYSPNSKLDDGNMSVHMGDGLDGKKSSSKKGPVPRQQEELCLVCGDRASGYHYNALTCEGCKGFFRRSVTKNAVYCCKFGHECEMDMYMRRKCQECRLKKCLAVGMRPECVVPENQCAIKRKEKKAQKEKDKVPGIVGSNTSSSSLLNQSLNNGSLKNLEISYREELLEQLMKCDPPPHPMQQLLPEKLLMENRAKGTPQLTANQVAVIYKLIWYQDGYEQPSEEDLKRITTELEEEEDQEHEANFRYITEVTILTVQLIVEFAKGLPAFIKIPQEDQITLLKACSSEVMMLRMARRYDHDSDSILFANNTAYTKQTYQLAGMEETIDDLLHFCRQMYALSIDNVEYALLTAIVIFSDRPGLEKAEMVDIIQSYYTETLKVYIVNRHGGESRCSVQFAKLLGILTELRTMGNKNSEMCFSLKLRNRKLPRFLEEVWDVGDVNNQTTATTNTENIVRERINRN
T1 sequence (O45117 whole entry): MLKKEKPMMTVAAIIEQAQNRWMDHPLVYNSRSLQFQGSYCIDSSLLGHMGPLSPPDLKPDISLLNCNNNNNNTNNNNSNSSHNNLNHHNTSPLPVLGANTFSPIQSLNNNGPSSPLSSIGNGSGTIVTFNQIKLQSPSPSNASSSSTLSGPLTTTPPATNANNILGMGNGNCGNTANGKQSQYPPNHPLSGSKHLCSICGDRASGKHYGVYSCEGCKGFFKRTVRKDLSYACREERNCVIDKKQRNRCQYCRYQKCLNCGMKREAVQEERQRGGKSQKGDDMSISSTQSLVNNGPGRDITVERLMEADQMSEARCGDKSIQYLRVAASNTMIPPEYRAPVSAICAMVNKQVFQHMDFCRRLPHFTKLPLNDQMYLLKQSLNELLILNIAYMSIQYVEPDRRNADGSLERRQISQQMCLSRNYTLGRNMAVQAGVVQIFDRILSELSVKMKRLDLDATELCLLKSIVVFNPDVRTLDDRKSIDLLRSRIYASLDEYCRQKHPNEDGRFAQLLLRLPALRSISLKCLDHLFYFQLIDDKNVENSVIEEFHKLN

[2] = molecular target: T2, Ecdysone receptor (Choristoneura fumiferana, UniProt O76202+O77240); test: Binding affinity to Choristoneura fumiferana EcR; type: protein-complex assay
T2 sequence (O77240 whole entry): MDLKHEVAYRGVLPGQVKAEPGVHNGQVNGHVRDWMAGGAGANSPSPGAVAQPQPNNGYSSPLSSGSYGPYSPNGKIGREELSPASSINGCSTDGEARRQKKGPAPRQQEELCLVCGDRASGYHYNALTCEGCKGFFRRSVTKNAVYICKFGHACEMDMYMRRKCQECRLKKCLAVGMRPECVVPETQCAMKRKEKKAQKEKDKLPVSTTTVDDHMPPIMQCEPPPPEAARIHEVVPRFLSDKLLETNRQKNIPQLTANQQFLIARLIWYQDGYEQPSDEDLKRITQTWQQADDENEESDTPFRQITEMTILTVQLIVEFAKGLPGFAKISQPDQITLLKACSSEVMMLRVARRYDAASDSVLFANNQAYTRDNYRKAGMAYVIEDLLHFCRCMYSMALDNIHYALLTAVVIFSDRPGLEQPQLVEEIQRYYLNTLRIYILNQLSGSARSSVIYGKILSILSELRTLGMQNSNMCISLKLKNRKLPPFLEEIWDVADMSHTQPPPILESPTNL
T2 sequence (O76202 whole entry): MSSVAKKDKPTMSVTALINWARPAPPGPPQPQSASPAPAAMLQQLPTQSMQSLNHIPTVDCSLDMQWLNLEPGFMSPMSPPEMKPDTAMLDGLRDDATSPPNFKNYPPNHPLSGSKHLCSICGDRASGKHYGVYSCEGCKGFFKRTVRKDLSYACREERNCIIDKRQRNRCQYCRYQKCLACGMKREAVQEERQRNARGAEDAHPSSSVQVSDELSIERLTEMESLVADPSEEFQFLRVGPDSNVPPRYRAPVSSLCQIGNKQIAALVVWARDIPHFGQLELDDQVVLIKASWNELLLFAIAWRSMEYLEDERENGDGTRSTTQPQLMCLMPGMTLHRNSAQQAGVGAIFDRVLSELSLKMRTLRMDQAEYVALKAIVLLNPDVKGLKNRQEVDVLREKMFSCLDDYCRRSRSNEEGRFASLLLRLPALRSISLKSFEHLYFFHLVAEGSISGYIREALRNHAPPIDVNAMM

Work on `CCc1ccc(C(=O)NN(C(=O)c2cc(C)cc(C)c2)C(C)(C)C)cc1` [TEBUFENOZIDE] yielded a Ki [1] of 10 nM and a Ki [2] of 0.501 nM.
